Data as given in US20260125346A1, “Isoquinolinone Derivatives and 4H-Quinolizinone Derivatives and Pharmaceutical Compositions Thereof for the Treatment of Disease” (BeOne Medicines I GmbH, priority 2023, published 2026).

Experiments:
[1] = system: PI3Kα H1047R mutated cell line T-47D; assay: Phospho-AKT (Ser473) Inhibition Assay (HTRF), T-47D; assay type: cell-based; conditions: for IC50: Homo sapiens, T47D, T-47D, 1 hour treatment, read-out: p-AKT Inhibition assay (S473) IC50 T-47D; for Selectivity: SK-BR-3/T-47D (p-AKT): p-AKT (S473) IC50 ratio
Method in brief: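 Cells seeded overnight in insulin-supplemented MEM, then treated 1 h with 11-point 1:3 compound dilutions (10 μM to 0.1 nM final, 0.1% DMSO). Lysates assayed for phospho-AKT Ser473 by HTRF; IC50 from 4-parameter logistic fit, normalised to DMSO (max) and 10 μM GDC0077 (min).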

[2] = target: PI3Kα (p110/p85) kinase (wild type, "WT") (Homo sapiens, UniProt P42336); assay: PI3Kα (p110/p85) kinase ADP-Glo Assay; assay type: biochemical; conditions: 25 uM ATP
Chain of PI3Kα (p110/p85) kinase (wild type, "WT") (P42336 whole entry): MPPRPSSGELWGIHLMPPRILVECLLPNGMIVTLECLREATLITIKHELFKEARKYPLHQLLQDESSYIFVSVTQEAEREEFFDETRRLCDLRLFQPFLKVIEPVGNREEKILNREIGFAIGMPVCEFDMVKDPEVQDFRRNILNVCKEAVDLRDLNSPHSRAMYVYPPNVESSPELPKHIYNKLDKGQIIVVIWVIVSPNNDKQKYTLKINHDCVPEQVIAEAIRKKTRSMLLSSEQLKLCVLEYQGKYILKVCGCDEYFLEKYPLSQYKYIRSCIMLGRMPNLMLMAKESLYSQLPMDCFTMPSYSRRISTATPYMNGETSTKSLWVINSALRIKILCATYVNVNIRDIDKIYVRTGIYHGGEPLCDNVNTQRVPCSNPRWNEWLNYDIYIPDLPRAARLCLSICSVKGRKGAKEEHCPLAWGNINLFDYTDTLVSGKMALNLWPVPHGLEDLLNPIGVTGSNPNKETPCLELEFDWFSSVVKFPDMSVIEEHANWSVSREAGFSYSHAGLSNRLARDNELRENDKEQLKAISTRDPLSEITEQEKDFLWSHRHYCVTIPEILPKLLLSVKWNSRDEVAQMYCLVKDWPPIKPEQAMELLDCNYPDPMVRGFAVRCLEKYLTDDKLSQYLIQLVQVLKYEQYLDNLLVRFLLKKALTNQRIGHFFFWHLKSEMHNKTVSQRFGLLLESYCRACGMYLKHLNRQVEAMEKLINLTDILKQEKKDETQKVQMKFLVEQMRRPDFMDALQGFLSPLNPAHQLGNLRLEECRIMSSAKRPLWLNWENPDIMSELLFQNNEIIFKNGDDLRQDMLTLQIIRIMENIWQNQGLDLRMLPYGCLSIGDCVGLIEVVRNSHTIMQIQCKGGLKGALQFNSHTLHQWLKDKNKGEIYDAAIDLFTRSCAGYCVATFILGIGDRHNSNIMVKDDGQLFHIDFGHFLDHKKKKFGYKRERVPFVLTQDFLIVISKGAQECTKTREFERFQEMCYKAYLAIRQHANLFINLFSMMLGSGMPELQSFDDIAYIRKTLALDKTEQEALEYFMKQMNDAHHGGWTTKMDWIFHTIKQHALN
Chain of PI3Kα (p110/p85) kinase (wild type, "WT") (P27986 whole entry partner): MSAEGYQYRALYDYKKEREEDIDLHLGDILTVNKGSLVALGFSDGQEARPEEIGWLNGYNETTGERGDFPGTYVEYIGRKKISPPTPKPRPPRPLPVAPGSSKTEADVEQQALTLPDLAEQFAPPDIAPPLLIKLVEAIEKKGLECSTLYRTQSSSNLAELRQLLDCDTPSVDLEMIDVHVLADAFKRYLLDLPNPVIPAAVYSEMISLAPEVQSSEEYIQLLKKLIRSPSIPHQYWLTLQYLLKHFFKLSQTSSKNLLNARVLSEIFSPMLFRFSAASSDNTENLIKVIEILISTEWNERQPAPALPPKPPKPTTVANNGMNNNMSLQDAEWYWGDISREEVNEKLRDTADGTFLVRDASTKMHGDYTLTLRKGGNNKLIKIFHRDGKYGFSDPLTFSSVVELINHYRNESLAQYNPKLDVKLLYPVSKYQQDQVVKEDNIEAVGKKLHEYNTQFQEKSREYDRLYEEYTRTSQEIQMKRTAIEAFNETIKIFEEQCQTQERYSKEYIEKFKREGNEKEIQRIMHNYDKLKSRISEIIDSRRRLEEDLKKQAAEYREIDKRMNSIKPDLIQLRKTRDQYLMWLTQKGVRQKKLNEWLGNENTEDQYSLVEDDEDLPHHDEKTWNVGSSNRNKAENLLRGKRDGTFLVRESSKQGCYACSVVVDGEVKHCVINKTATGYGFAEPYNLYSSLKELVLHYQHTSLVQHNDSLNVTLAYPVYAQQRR
Method in brief: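 Wild-type PI3Kα p110/p85 preincubated 30 min at RT with PI(4,5)P2:PS substrate ([…]) and compound ([…]) in HEPES pH7.5 buffer with MgCl2, DTT and BSA; reaction started with 25 µM ATP for 120 min at RT. ADP measured by ADP-Glo luminescence; IC50 from four-parameter logistic fit.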

[3] = system: PI3Kα H1047R mutated cell line T-47D cells; assay: Cell Proliferation Assay (CellTiter-Glo), T-47D; assay type: cell-based; conditions: for IC50: Homo sapiens, T47D, 72 h, T-47D, 3 days treatment; for Selectivity: SK-BR-3/T-47D (cell proliferation): cell proliferation IC50 ratio
Method in brief: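 T-47D cells seeded overnight at 3×10^3/well, then exposed 3 days to 9-point 1:3 dilutions, final […] to 1 nM in 0.1% DMSO. CellTiter-Glo luminescence; relative IC50 from percent inhibition versus medium-only and 0.1% DMSO controls, 4-parameter logistic fit.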

| SMILES | IC50 [1] [nM] | Selectivity: SK-BR-3/T-47D (p-AKT) [1] | IC50 [2] [nM] | IC50 [3] [nM] | Selectivity: SK-BR-3/T-47D (cell proliferation) [3] |
| --- | --- | --- | --- | --- | --- |
| COc1cccc(-c2cc3c(C(C)Nc4ccccc4C(=O)O)cc(C)cc3c(=O)n2C)c1 (centres unmarked) [Example 13, 2-((1-(3-(3-methoxyphenyl)-2,7-dimethyl-1-oxo-1,2-dihydroisoquinolin-5-yl)ethyl)amino)benzoic acid] | 64 | 56.1 | 5820 | 233 | >43 |
| Cc1cc([C@@H](C)Nc2ccccc2C(=O)O)c2cc(-c3ccc(C(C)(C)O)nc3)n(C)c(=O)c2c1 [Example 56, (R)-2-((1-(3-(6-(2-hydroxypropan-2-yl)pyridin-3-yl)-2,7-dimethyl-1-oxo-1,2-dihydroisoquinolin-5-yl)ethyl)amino)benzoic acid] | 512 | >19.55 | 17100 | 96.2 | >104 |
| CC(Nc1ccccc1C(=O)O)c1cccn2c(=O)cc(-c3ccccc3)cc12 (centres unmarked) [Example 25, 2-((1-(4-oxo-2-phenyl-4H-quinolizin-9-yl)ethyl)amino)benzoic acid] | 299 | >33.4 | 23800 | > 10000 | – |
| Cc1cc(C(C)Nc2ccccc2C(=O)O)c2cc(-c3cccc(F)c3)n(C)c(=O)c2c1 (centres unmarked) [Example 7, 2-((1-(3-(3-fluorophenyl)-2,7-dimethyl-1-oxo-1,2-dihydroisoquinolin-5-yl)ethyl)amino)benzoic acid] | 53.9 | 34.5 | 2520 | 101 | >98.8 |
| Cc1cc(C(C)Nc2ccccc2C(=O)O)c2cc(-c3ccc(F)cc3)n(-c3nccs3)c(=O)c2c1 (centres unmarked) [Example 71, 2-((1-(3-(4-fluorophenyl)-7-methyl-1-oxo-2-(thiazol-2-yl)-1,2-dihydroisoquinolin-5-yl)ethyl)amino)benzoic acid] | 102 | 55.0 | 14200 | 267 | >34 |
| Cc1cc(C(C)Nc2ccccc2C(=O)O)c2cc(NC(=O)c3ccccc3)n(C)c(=O)c2c1 (centres unmarked) [Example 24, 2-((1-(3-benzamido-2,7-dimethyl-1-oxo-1,2-dihydroisoquinolin-5-yl)ethyl)amino)benzoic acid] | 3140 | >3.1 | 39200 | 9340 | >1.07 |
| Cc1cc(C(C)Nc2ccccc2S(C)(=O)=O)c2cc(-c3ccccc3)n(C)c(=O)c2c1 (centres unmarked) [Example 82, 2,7-dimethyl-5-(1-((2-(methylsulfonyl)phenyl)amino)ethyl)-3-phenylisoquinolin-1(2H)-one] | 155 | 13.0 | 3310 | > 10000 | – |
| Cc1cc(C(C)Nc2ccccc2C(=O)O)c2cc(-c3ccc(F)cc3)n(CC#N)c(=O)c2c1 (centres unmarked) [Example 63, 2-((1-(2-(cyanomethyl)-3-(4-fluorophenyl)-7-methyl-1-oxo-1,2-dihydroisoquinolin-5-yl)ethyl)amino)benzoic acid] | 57.3 | 83.3 | 6140 | 205 | >49 |
| Cc1cc(C(C)Nc2ccncc2C(=O)O)c2cc(-c3ccc(F)cc3)n(C)c(=O)c2c1 (centres unmarked) [Example 97, 4-((1-(3-(4-fluorophenyl)-2,7-dimethyl-1-oxo-1,2-dihydroisoquinolin-5-yl)ethyl)amino)nicotinic acid] | > 10000 | – | > 100000 | > 10000 | – |
| Cc1cc(C(C)Nc2ccccc2C(=O)O)c2cc(-c3ccc4nc(C)sc4c3)n(C)c(=O)c2c1 (centres unmarked) [Example 18, 2-((1-(2,7-dimethyl-3-(2-methylbenzo[d]thiazol-6-yl)-1-oxo-1,2-dihydroisoquinolin-5-yl)ethyl)amino)benzoic acid] | 85.1 | 27.3 | 4370 | 222 | >45 |
| COc1ncc(-c2cc3c([C@@H](C)Nc4ccccc4C(=O)O)cc(C)cc3c(=O)n2C)cc1F [Example 59, (R)-2-((1-(3-(5-fluoro-6-methoxypyridin-3-yl)-2,7-dimethyl-1-oxo-1,2-dihydroisoquinolin-5-yl)ethyl)amino)benzoic acid] | 81.5 | >123 | 4310 | 93.1 | >107 |
| Cc1cc([C@@H](C)Nc2ccccc2C(=O)O)c2cc(-c3cnc(C(C)(C)O)nc3)n(C)c(=O)c2c1 [Example 67, (R)-2-((1-(3-(2-(2-hydroxypropan-2-yl)pyrimidin-5-yl)-2,7-dimethyl-1-oxo-1,2-dihydroisoquinolin-5-yl)ethyl)amino)benzoic acid] | 1540 | >6.51 | 13600 | 279 | >36 |
| Cc1cc(C(C)Nc2ccccc2C(=O)O)c2cc(-c3ccc4c(c3)C3CC3O4)n(C)c(=O)c2c1 (centres unmarked) [Example 53, 2-((1-(3-(1a,6b-dihydro-1H-cyclopropa[b]benzofuran-5-yl)-2,7-dimethyl-1-oxo-1,2-dihydroisoquinolin-5-yl)ethyl)amino)benzoic acid] | 44.7 | 56.6 | 4840 | 815 | >12 |
| Cc1cc(C(C)Nc2cccnc2C(=O)O)c2cc(-c3ccc(F)cc3)n(C)c(=O)c2c1 (centres unmarked) [Example 33, 3-((1-(3-(4-fluorophenyl)-2,7-dimethyl-1-oxo-1,2-dihydroisoquinolin-5-yl)ethyl)amino)picolinic acid] | 271 | 36.6 | 55100 | 1590 | >6.28 |
| CC(Nc1ccccc1C(=O)O)c1cccc2c(=O)n(C)c(-c3ccccc3)cc12 (centres unmarked) [Example 20, 2-((1-(2-methyl-1-oxo-3-phenyl-1,2-dihydroisoquinolin-5-yl)ethyl)amino)benzoic acid] | 24.1 | >416 | 10100 | 934 | >10.7 |
| COc1ncc(-c2cc3c(C(C)Nc4ccccc4C(=O)O)cc(C)cc3c(=O)n2C)cc1F (centres unmarked) [Example 58, 2-((1-(3-(5-fluoro-6-methoxypyridin-3-yl)-2,7-dimethyl-1-oxo-1,2-dihydroisoquinolin-5-yl)ethyl)amino)benzoic acid] | 220 | 14.3 | 9990 | 351 | >29 |
| Cc1cc(C(C)Nc2ccccc2C(=O)O)c2cc(-c3cc(F)cc(F)c3)n(C)c(=O)c2c1 (centres unmarked) [Example 10, 2-((1-(3-(3,5-difluorophenyl)-2,7-dimethyl-1-oxo-1,2-dihydroisoquinolin-5-yl)ethyl)amino)benzoic acid] | 82 | 33.3 | 8080 | 128 | >78 |
| Cc1cc(C(C)Nc2ccccc2C(=O)O)c2cc(-c3ccc(C(F)(F)F)cc3)n(C)c(=O)c2c1 (centres unmarked) [Example 49, 2-((1-(2,7-dimethyl-1-oxo-3-(4-(trifluoromethyl)phenyl)-1,2-dihydroisoquinolin-5-yl)ethyl)amino)benzoic acid] | 89.2 | 50.7 | 9530 | 986 | >10 |
| Cc1cc(C(C)Nc2ccccc2C(=O)O)c2cc(-c3ccc(F)cc3)n(C3CCOCC3)c(=O)c2c1 (centres unmarked) [Example 96, 2-((1-(3-(4-fluorophenyl)-7-methyl-1-oxo-2-(tetrahydro-2H-pyran-4-yl)-1,2-dihydroisoquinolin-5-yl)ethyl)amino)benzoic acid] | 330 | 28.8 | 72000 | 993 | >10 |
| Cc1cc(C(C)Nc2ccccc2C(=O)O)c2cc(-c3cncnc3)n(C)c(=O)c2c1 (centres unmarked) [Example 61, 2-((1-(2,7-dimethyl-1-oxo-3-(pyrimidin-5-yl)-1,2-dihydroisoquinolin-5-yl)ethyl)amino)benzoic acid] | 1400 | >7.15 | 19500 | 340 | >29 |
| Cc1cc(C(C)Nc2ccccc2C(=O)O)c2cc(-c3ccc4c(c3)C(=O)N(C)C4)n(C)c(=O)c2c1 (centres unmarked) [Example 75, 2-((1-(2,7-dimethyl-3-(2-methyl-3-oxoisoindolin-5-yl)-1-oxo-1,2-dihydroisoquinolin-5-yl)ethyl)amino)benzoic acid] | 547 | >18.29 | 31400 | 270 | >37 |
| Cc1cc(C(C)Nc2ccccc2C(=O)O)c2cc(-c3ccc(P(C)(C)=O)cc3)n(C)c(=O)c2c1 (centres unmarked) [Example 79, 2-((1-(3-(4-(dimethylphosphoryl)phenyl)-2,7-dimethyl-1-oxo-1,2-dihydroisoquinolin-5-yl)ethyl)amino)benzoic acid] | > 10000 | – | 59200 | > 10000 | – |
